Assay results published in article PMC2992954 (Molecular bioSystems, 2009).
Counter-ions that a name gives are not always drawn.

Target: Sfp-PPTase (Bacillus subtilis, UniProt P39135)
Assay: Rhodamine/BHQ-2 dark quench assay
Format: biochemical

Sequence of Sfp-PPTase (P39135 whole entry): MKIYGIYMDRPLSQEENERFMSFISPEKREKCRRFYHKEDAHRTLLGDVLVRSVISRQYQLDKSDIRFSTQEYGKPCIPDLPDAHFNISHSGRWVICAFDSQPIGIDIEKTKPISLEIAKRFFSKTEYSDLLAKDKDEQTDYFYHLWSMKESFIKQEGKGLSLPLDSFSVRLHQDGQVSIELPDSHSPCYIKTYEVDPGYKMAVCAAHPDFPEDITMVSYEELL

IC50: 14.6 µM
Compound: Nc1ncnc2c1ncn2[C@@H]1O[C@H](COP(=O)(O)O)[C@@H](OP(=O)(O)O)[C@H]1O [PAP 3, adenosine 3′, 5′-diphosphate sodium salt]
